Results taken from US20060067991A1 (priority 2004, published 2006).

Columns and labels:
[1] = test system: enzymes produced by S. aureus MN8; experiment: Breakdown of test compounds by enzymes produced by S. aureus MN8, GC/MS of culture fluid; type: in vitro ADME; settings: concentrations of b130; for course of the concentration of the dominant compound over time: GC/MS at 3, 6, 9 and 24 hours; for dominant compound found in the culture fluid: GC/MS, undiluted solutions at 3, 6, 9 and 24 hours
Procedure: (§1) The test compounds, in the desired concentrations, were placed in 100 mL of a growth medium in a sterile, 500 mL Corning Fleaker (Fisher Scientific, Pittsbury, Pa.). The growth medium and inoculum were prepared as in Example 1.
(§2) The test compounds were added to the growth medium in the amount necessary to obtain the desired final concentration.
(§3) Each fleaker was inoculated with the amount of inoculum determined as described above. The fleakers were capped with sterile aluminum foil and incubated at 35° C. in atmospheric air in a Lab-Line orbital water bath (available from VWR Scientific Products, McGaw Park, Ill.) at 180 rpm. Fifteen milliliter samples were removed at 3, 6, 9, and 24 hours. The optical density (595 nm) of the culture fluid was determined and the culture fluid collected at 24 hours was assayed for the number of colony forming units of S. aureus MN8 using standard plate count procedures.
In preparation for analysis of the integrity of the test compounds, the culture fluid was centrifuged at 3000 rpm at 2-10° C. for 15 minutes. The supernatant was filter sterilized through an AUTOVIAL 5 syringeless filter, […] pore size (available from Whatman, Inc., Clifton, N.J.). The resulting fluid was frozen at −70° C. in a FISHERBRAND (12 mm×75 mm) polystyrene culture tube (Fisher Scientific, Pittsburgh, Pa.) until chemical analysis could be performed.
Using an Agilent Technologies 5973N GC/MS, analysis was performed on undiluted solutions at 3, 6, 9, and 24 hours to evaluate the ability of S. aureus MN8 to breakdown the test compounds. Based on the analysis, the control sample, which had no test compounds added, comprised mostly acetic acid at all time intervals.

[2] = test system: enzymes produced by S. aureus MN8; experiment: Breakdown of test compounds by S. aureus MN8, liquid chromatography of culture fluid; type: in vitro ADME; settings: 6 hour and 24 hour samples, UV 230 nm
Procedure: as §1, §2, §3
In preparation for analysis of the integrity of the test compounds, the culture fluid was centrifuged at 3000 rpm at 2-10° C. for 15 minutes. […]
Additional analysis of the 6 hour and 24 hour samples was conducted by liquid chromatography. […] The dilutions were then analyzed using an ion exclusion column to achieve the separation. Detection of the compounds was accomplished through UV absorbance at 230 nm.

SMILES	course of the concentration of the dominant compound over time [1]	dominant compound found in the culture fluid [1]	breakdown to the active species [2]
OCc1ccccc1 [Benzyl alcohol, benzyl alcohol]	decreased over time	benzyl alcohol	
O=C(O)c1ccccc1 [benzoic acid]	decreased over time	benzoic acid	
CC(C)CC(NC(=O)c1ccccc1)C(=O)O (racemic) [N-benzoyl-DL-leucine, N-Benzoyl-DL-Leucine]	decreasing concentration over time	benzoic acid	breakdown to benzoic acid
